What all share (experiment): Kinase profiling screen (radioactive filter-binding assay)
Holding throughout (type): biochemical

For one assay, the target named is CK2α (Homo sapiens, UniProt P68400). The conditions noted are these: 100 μM compound, 5 μM ATP; read-out: Kinase activity, % of activity in the absence of inhibitor. The gist of the method:
(§1)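 Single-point in vitro screen: 100 μM final of CoA, dpCoA and ADP, run in duplicate against recombinant kinase with a model substrate and optimal ATP.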

In the next assay the target is CSK (Homo sapiens, UniProt P41240). Conditions: 100 μM compound, 20 μM ATP; read-out: Kinase activity, % of activity in the absence of inhibitor. The procedure, abridged: as §1
The next assay has as its target T1, GCK (Homo sapiens, UniProt Q12851).
T1 sequence (Q12851 1-820): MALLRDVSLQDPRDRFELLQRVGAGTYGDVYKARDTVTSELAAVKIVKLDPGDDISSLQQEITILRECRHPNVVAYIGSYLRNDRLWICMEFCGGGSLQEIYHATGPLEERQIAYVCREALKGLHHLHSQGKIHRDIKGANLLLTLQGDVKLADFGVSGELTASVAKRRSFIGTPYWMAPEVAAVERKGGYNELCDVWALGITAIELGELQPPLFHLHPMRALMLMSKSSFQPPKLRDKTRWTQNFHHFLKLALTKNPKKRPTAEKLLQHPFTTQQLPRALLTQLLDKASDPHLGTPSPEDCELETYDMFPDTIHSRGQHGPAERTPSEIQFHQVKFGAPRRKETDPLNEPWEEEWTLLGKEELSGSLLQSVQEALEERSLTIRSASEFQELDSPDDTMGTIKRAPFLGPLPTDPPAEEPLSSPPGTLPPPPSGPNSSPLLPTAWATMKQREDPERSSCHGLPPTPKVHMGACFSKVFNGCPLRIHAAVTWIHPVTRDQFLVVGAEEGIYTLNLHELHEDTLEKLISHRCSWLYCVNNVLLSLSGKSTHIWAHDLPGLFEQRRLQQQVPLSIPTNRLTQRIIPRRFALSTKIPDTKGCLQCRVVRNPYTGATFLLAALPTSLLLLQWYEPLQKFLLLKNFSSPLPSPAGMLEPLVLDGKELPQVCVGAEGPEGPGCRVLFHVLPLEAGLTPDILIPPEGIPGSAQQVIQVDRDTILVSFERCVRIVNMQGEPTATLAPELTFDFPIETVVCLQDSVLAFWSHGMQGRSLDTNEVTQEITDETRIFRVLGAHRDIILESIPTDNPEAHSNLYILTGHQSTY
Conditions: 100 μM compound, 20 μM ATP; read-out: Kinase activity, % of activity in the absence of inhibitor. The gist of the method:
as §1

The next assay addresses T2, PDK1 (Homo sapiens, UniProt O15530).
T2 sequence (O15530 1-556): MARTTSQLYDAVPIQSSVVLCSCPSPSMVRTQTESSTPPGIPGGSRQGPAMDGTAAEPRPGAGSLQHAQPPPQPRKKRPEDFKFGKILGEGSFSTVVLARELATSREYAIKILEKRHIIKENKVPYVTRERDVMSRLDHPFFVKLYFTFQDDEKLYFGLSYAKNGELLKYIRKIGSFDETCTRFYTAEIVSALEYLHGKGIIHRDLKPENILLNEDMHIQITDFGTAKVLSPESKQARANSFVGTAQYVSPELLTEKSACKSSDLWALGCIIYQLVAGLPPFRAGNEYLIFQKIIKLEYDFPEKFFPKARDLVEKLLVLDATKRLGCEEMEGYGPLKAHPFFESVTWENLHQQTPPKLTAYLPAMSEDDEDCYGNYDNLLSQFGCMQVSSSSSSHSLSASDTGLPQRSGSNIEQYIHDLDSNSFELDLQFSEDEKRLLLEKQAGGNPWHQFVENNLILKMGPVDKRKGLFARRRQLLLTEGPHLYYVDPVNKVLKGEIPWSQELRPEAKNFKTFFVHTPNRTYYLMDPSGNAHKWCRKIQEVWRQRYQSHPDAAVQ
The conditions noted are these: 100 μM compound, 20 μM ATP; read-out: Kinase activity, % of activity in the absence of inhibitor. The gist of the method:
as §1

The target of a further assay is PHKγ1 (Homo sapiens, UniProt Q16816). Conditions: 100 μM compound, 50 μM ATP; read-out: Kinase activity, % of activity in the absence of inhibitor. The procedure, abridged: as §1
A further assay concerns the target PKCβ (Homo sapiens, UniProt P05771). The conditions noted are these: 100 μM compound, 50 μM ATP; read-out: Kinase activity, % of activity in the absence of inhibitor. The procedure, abridged: as §1
The target of a further assay is T3, TTK (Homo sapiens, UniProt P33981).
T3 sequence (P33981 1-857): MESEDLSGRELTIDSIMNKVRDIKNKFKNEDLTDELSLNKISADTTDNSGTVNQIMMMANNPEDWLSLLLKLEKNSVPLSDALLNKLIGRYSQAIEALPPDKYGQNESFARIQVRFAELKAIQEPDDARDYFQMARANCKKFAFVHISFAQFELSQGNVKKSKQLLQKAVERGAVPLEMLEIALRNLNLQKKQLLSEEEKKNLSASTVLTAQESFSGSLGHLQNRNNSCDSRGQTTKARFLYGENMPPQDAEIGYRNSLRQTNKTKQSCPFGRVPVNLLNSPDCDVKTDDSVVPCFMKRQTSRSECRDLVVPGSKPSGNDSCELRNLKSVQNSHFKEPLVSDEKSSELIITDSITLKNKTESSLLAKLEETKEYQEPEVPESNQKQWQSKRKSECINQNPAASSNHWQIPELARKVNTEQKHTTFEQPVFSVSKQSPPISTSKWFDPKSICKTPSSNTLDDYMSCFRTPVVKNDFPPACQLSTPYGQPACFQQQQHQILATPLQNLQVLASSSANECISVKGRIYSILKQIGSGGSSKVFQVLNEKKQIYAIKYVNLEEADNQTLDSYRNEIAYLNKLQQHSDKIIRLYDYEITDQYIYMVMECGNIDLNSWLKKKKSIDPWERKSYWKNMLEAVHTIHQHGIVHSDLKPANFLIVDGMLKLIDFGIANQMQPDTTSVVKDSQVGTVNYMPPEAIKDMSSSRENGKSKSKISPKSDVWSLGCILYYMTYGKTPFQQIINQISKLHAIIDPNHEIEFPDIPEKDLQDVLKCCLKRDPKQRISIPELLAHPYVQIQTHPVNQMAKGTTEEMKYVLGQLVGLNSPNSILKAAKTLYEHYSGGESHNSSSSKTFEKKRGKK
Conditions: 100 μM compound, 20 μM ATP; read-out: Kinase activity, % of activity in the absence of inhibitor. The procedure, abridged: as §1

Chain of PKCβ (P05771 whole entry): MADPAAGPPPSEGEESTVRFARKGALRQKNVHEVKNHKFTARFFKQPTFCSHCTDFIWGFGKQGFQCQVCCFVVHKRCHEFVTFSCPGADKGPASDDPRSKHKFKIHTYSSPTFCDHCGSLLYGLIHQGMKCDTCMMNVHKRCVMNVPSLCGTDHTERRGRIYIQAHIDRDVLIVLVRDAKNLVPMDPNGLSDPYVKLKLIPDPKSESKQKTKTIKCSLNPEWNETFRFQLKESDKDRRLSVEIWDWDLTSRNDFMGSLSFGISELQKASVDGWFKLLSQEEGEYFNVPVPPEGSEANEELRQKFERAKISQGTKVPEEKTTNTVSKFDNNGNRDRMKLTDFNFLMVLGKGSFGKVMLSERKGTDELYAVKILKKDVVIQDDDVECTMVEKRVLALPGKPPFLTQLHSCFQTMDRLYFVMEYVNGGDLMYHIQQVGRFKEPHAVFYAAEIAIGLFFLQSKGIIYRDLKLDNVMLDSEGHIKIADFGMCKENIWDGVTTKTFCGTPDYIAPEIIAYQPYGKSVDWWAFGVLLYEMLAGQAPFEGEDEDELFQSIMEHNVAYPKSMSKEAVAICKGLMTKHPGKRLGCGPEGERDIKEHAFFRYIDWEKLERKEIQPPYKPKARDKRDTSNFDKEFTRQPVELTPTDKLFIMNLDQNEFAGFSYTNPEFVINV
Chain of CK2α (P68400 whole entry): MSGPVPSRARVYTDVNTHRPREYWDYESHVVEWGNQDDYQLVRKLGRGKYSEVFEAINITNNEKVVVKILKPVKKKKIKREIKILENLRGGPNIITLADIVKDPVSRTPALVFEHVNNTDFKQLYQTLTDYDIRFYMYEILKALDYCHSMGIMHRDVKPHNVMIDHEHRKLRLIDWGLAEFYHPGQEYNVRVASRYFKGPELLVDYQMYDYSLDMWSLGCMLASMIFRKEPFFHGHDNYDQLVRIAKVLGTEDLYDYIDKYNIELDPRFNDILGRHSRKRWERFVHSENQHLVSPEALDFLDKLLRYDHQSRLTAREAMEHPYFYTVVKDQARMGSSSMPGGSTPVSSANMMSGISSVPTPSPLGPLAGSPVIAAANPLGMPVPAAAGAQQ
Chain of CSK (P41240 whole entry): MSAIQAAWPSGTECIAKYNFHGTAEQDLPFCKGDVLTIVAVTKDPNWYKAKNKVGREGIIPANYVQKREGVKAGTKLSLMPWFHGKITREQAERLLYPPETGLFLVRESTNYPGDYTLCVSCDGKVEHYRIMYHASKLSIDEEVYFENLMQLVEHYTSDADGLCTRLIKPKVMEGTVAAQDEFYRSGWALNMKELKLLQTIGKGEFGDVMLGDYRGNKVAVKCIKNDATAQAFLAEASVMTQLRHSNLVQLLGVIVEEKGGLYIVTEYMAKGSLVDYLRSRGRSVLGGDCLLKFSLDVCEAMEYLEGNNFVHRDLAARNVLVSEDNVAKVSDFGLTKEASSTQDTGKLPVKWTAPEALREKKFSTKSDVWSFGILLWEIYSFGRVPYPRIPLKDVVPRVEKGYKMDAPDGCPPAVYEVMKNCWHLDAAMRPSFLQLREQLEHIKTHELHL
Chain of PHKγ1 (Q16816 whole entry): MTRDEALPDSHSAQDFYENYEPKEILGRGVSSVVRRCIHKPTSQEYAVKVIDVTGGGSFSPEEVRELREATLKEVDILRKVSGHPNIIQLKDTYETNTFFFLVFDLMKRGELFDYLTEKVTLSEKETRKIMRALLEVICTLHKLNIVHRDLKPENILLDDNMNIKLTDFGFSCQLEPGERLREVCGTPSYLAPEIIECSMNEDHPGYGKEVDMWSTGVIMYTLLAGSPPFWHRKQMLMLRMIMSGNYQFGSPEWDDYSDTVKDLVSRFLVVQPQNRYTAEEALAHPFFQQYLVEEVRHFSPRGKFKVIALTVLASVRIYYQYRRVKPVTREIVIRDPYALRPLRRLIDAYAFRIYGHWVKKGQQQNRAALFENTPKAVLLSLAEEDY

As for `Nc1ncnc2c1ncn2C1OC(COP(=O)(O)OP(=O)(O)O)C(O)C1O` (stereo not drawn) [ADP], the activity at 100 µM at CK2α was 5.4%; on CSK, 18.5%; on GCK, 56.5%; on PDK1 it was 23.3%; at PHKγ1, 75.6%; on PKCβ, 79.2%. Moreover, at TTK, the activity at 100 µM is 54.7%.

In the case of `CC(C)(COP(=O)(O)OP(=O)(O)OC[C@H]1O[C@@H](n2cnc3c(N)ncnc32)[C@H](O)[C@@H]1OP(=O)(O)O)[C@@H](O)C(=O)NCCC(=O)NCCS` [CoA, Coenzyme A], the activity at 100 µM on CK2α turned out to be 80.1%; on CSK it was 92.6%; on GCK it was 109%; on PDK1, 113%; on PHKγ1, 105%; on PKCβ, 118%. The activity at 100 µM on TTK was 101%.

For the compound `CC(C)(COP(=O)(O)OP(=O)(O)OCC1OC(n2cnc3c(N)ncnc32)C(O)C1O)C(O)C(=O)NCCC(=O)NCCS` (stereo not drawn) [dpCoA, dephospho-CoA], the activity at 100 µM is 39.8% at CK2α; 54.9% on CSK; 71.2% at GCK; 91.2% at PDK1; 90.9% at PHKγ1; 105% at PKCβ. The activity at 100 µM on TTK was determined as 75.8%.

These data come from paper PMC6812009, “Covalent Aurora A regulation by the metabolic integrator coenzyme A” (Redox Biology, 2019).
